Test results from paper PMC7026080, “Phenotypic high-throughput screening platform identifies novel chemotypes for necroptosis inhibition” (Cell Death Discovery, 2020).

How the values were obtained:
Jurkat E6.1 cells = experiment: Apoptosis modulation, caspase-3/-7 activity in Jurkat E6.1 cells + CHX, 8 h; type: cell-based, human; details: Jurkat E6.1 + 0.5 μg/mL CHX
Protocol: Since apoptosis and necroptosis share key molecular players[20] and some RIPK3 necroptosis inhibitors may induce caspase-dependent cytotoxicity, hit compounds were tested for modulation of apoptosis activity in step three of the HTS workflow. Preliminary tests prior to screening encompassed the evaluation of several apoptosis inducers, such as FasL, doxorubicin, cycloheximide (CHX) and staurosporine, for their capability to modulate caspase-3/-7 activity in human Jurkat E6.1 T-cells, using Z-VAD-FMK and SN-2668/Nec-1 as negative and positive controls, respectively. […]
Adenylate kinase (AK) and lactate dehydrogenase (LDH) release from damaged cells were measured using the Toxilight BioAssay Kit (Lonza, Basel, Switzerland) and the Cytotoxicity Detection Kit (Roche Diagnostics GmbH, Mannheim, Germany), respectively. Adenosine triphosphate (ATP) metabolism was evaluated using CellTiter-Glo^TM Luminescent Cell Viability Assay (Promega, Madison, WI, USA). Apoptosis was determined by the measurement of caspase-3/-7 activity using the Caspase-Glo® 3/7 Assay (Promega) according to the manufacturer’s instructions. Cellular metabolic activity was measured using CellTiter 96® Aqueous Non-Radioactive Cell Proliferation (MTS) Assay (Promega). […]
Primary high-throughput screen. […] Eight hours after co-incubation of L929 cells with mTNF-α and test compounds, AK release was evaluated. […]

[1] = Rat hepatic clearance (in vitro); type: in vitro ADME
[2] = Human microsomal clearance (in vitro); type: in vitro ADME; details: microsomes, read-out: Human microsomal clearance (in vitro) rate
[3] = Mouse pharmacokinetics, i.v.; type: in vivo; details: plasma, iv, male C57BL/6J mice, 5 mg/kg i.v.; for AUC: read-out: Mouse AUC (in vivo); for Cmax: read-out: Mouse Cmax (in vivo); for clearance: read-out: Mouse clearance (in vivo) rate; for half-life: read-out: Mouse half-life (in vivo) T1/2 (converted); for Tmax: read-out: Tmax (in vivo)
Protocol: Pharmacokinetic measurements. Pharmacokinetic studies were performed in male C57BL/6J mice by Pharmaron (Pharmaron Beijing Co Ltd, Beijing, China). Compound (5 mg/kg body weight) was administered intravenously in vehicle (57% PBS, 32% DMSO, 4% PEG 400, 3% ethanol, 4% Tween 80). Blood samples obtained postdosing were collected in plastic microcentrifuge tubes containing EDTA-K2 and centrifuged at 4000 × g for 5 min to obtain plasma. The concentration of compound in plasma samples was determined using a liquid chromatography-tandem mass spectrometry (LC-MS/MS) method by monitoring transition from m/z 541 to 383 in ESI-positive mode. PK parameters were calculated by non-compartmental model using Phoenix WinNonlin v. 6.1 (Pharsight Corp, Certara, St. Louis, MO, USA).

MDR1 = experiment: MDCK-MDR1 cell-based permeability assay; type: in vitro ADME; details: dog
HT29 cells = experiment: Necroptosis protection in HT29 cells (TNF-α + Smac mimetic + Z-VAD-FMK), 24 h; type: cell-based, human; details: compounds at 10 μM, hTNF-α + Smac mimetic + Z-VAD-FMK
Protocol: (§1) Necroptosis inhibition properties were further examined using two additional cellular models of regulated necrosis. First, in human adenocarcinoma HT29 cells, and then in immortalized murine microglial BV2 cells, where we co-incubated a mixture of human or murine TNF-α, Smac mimetic […], pan-caspase inhibitor Z-VAD-FMK[29] or Z-VAD-FMK alone, and tested compounds at 10 μM for 24 h. […] In parallel, preliminary data for compound liver toxicity was extrapolated using HepG2 cells.
(§2) Fig. 3 Secondary-stage cascade for hit validation and compound refinement for further studies. a Compound ability to prevent necroptosis execution in HT29 cells co-incubated with 20 ng/mL hTNF-α (T) together with 250 nM Smac mimetic BV6 (S) and […] Z-VAD-FMK (Z), and selected compounds at 10 μM for 24 h. b Selected compound ability to prevent necroptosis execution in BV2 cells co-incubated with 25 μM Z-VAD-FMK (Z) and compounds at 10 μM for 24 h. c Selected compound toxicity evaluation in HepG2 cells incubated with test compounds at 100 and 50 μM for 24 h. Data represent mean values ± SEM of three independent experiments normalized to untreated control. Cell viability was assessed using a luminescence-based readout for AK release and ATP production, and a colorimetric-based readout for LDH release and MTS metabolism. ns, not significant; *p < 0.05, ***p < 0.001.
(§3) Cell treatments and viability assays. […]

BV2 cells = experiment: Necroptosis protection in BV2 cells (Z-VAD-FMK), 24 h; type: cell-based, murine; details: compounds at 10 μM, 25 μM Z-VAD-FMK
Protocol: as §1, §2, §3

SMILES | Modulation of caspase-3/-7 activity (apoptosis) (Jurkat E6.1 cells) | Rat hepatic clearance (in vitro) rate [1] | microsomal CLint [2] | AUC [3] | Cmax [3] | clearance [3] | half-life [3] | Tmax [3] | efflux ratio (MDR1) | Protection from necroptosis in HT29 cells (membrane integrity by AK and LDH release, ATP levels) (HT29 cells) | Protection from necroptosis execution in BV2 cells (BV2 cells)
O=C(c1cnn(Cc2ccccc2)c1)N1CCOc2ccccc2C1 [SN-6109] | no apoptosis modulation | 87 μL/min/1E6 | 42 µL/min/mg | 2340 nM·h | 10.2 µM | 6.42 L/h/kg | 18.6 min | 1.8 min | – | – | –
CN1C(=O)C(Cc2c[nH]c3ccccc23)NC1=S (stereo not drawn) [Nec-1, necrostatin-1] | failed to modulate caspase activity | – | 59 µL/min/mg | 3210 nM·h | 11.3 µM | 6.06 L/h/kg | 26.4 min | 1.8 min | 0.45 | completely rescued membrane integrity and ensured metabolic cell viability | complete protection against necroptosis execution
